In patent US5190873A, “Hybrid tryptophan aporepressor containing ligand binding sites” (California Institute of Biological Research, priority 1991, dated 1993):
Where no end group is shown, it is not given here.

What follows are substances tested on U251MG human glioma cell attachment to TrpR-TN5 (E. coli Trp aporepressor hybrid with SRRGDMS at D/E transition) (assay: Cell attachment assay on TrpR-TN5-coated wells, peptide competition). Settings: peptide at 1 mg/ml; U251 cells.
Type: cell-based
Protocol: Recombinant proteins were assessed for cell binding activity in a microtiter plate cell attachment assay. The assay is a simple and rapid means of assessing cell binding to the recombinant protein. In addition the specificity of the interaction is explored with specific inhibitor peptides, recombinant proteins and matrix proteins. Finally, the assay is used to screen a variety of cell lines to determine the range of cell types capable of interacting with the recombinant protein.
The assay used was a modification of one widely used in the field. See Bourdon et al., J. Cell Biol., 108:1149-1155 (1989). […] Nonspecific sites on the well were blocked with BSA. Human tumor cells, U251MG-human glioma or MG63-human sarcoma having the receptor which binds the SRRGDMS receptor binding site with or without inhibitor were added and allowed to adhere for 30 to 90 minutes at 37° C. Following the maintenance period, non-adherent cells were washed out and relative numbers of adherent cells were determined. The assay can detect binding interactions in the absence of extensive cell spreading.
In the cell attachment assay, the attached cells stained with Di-I a vital fluorescent dye which intercalates in cell membranes. The advantages of this form of cell tagging are that cells can be rapidly labeled, the label remains cell bound, it is not radioactive, and it is easily detected in a fluorescence plate reader.
Specificity of cell attachment was then determined in competition assays of cell attachment using SRRGDMS or GRGDSP peptides as competitive inhibitors of recombinant protein cell attachment. In the presence of 1 mg/ml SRRGDMS peptide, the specific attachment of U251MG cells to either fusion protein was inhibited as shown in FIG. 3.
In the case of GRGDSP (GRGDSP-NH2), the “inhibition of cell attachment to TrpR-TN5” value (“inhibition” below) is reported as “inhibited”. With MGSRSRD the “inhibition” value was “did not inhibit”. With SRRGDMS (SRRGDMS-NH2) the “inhibition” value was “inhibited”.
